Experiments:
Assay type in all cases: in vivo, human
[1] = system: patients with moderate to severe OA of the hip or knee; experiment: Example 1: randomized, double-blind, placebo-controlled dose-titration study of SC tanezumab (16-week treatment), efficacy: WOMAC Pain, WOMAC Physical Function, PGA-OA, average daily index joint pain; settings: for PGA-OA: Diff of LS Means vs placebo / PGA-OA: LS Mean change from Baseline / WOMAC Pain: Diff of LS Means vs placebo / WOMAC Pain: LS Mean change from Baseline / WOMAC Physical Function: Diff of LS Means vs placebo / WOMAC Physical Function: LS Mean change from Baseline / proportion of patients with ≥50% reduction from baseline in WOMAC Pain subscale: Week 16
Experimental: All patients provided written informed consent before participating. The study was conducted in compliance with the Declaration of Helsinki and all International Conference on Harmonisation Good Clinical Practice guidelines.
The co-primary efficacy endpoints were change from baseline to week 16 in WOMAC Pain subscale, WOMAC Physical Function subscale, and PGA-OA (Theiler et al., Osteoarthritis Cartilage. 2002; 10(6):479-481; Stengaard-Pederson et al., Rheumatology (Oxford). 2004; 43(5):592-595). WOMAC Pain and WOMAC Physical Function subscales measured symptoms within the last 48 hours; both used an 11-point numeric rating scale where higher scores indicated higher levels of pain or worse function. For PGA-OA, patients answered the question “Considering all the ways your osteoarthritis in your hip/knee affects you, how are you doing today?” on a scale from 1=“very good” to 5=“very poor.”
A key secondary efficacy endpoint was the WOMAC Pain […], responder rate at week 16. Other secondary efficacy endpoints were WOMAC Pain responder rates (≥30%, ≤70%, and ≤90%) at week 16 and patient-reported rescue medication use during weeks 2, 4, 8, 12, and 16.
Individual patient transitions in WOMAC Pain response categories (non-response defined as <30% reduction in WOMAC Pain; moderate response as ≥30%, but <50% reduction in WOMAC Pain; and substantial response as […], reduction from baseline in WOMAC Pain) between adjacent time points through the study (from week 4 to week 8, from week 8 to week 12, and from week 12 to week 16), were investigated using contingency tables. These analyses were conducted post hoc. Consistent non-responders were those patients with less than a 30% reduction from baseline in WOMAC Pain at two consecutive time points. Consistent moderate responders were those patients with at least a 30% but less than 50% reduction from baseline in WOMAC Pain at two consecutive time points. Consistent substantial responders were those patients who maintained at least a 50% reduction from baseline in WOMAC Pain at two consecutive time points.
Co-primary endpoints were analyzed in the intent-to-treat population (all patients who received ≥1 study medication dose) using an analysis of covariance model, with terms for baseline score, baseline patient diary average pain, index joint, Kellgren-Lawrence grade, and treatment group, and study site as a random effect. Missing data were handled with a multiple imputation strategy dependent on the reason for discontinuation.
Comparisons for other secondary endpoints were unadjusted. […] Safety assessments were summarized by treatment group as percentages of the treatment group population.

[2] = system: patients with moderate to severe OA of the hip or knee; experiment: Example 1: adjudicated joint safety events (RPOA, TJR)
Experimental: Investigators performed musculoskeletal examinations at each study visit. Investigators evaluated patients reporting increased severe or persistent pain via eDiary lasting […] to determine if additional follow-up was needed. Post-baseline x-rays (scheduled or for cause) were assessed by the central reader for possible or probable RPOA, subchondral insufficiency fracture, primary osteonecrosis, or pathologic fracture. If warranted, magnetic resonance imaging scans were performed and/or patients were referred to an orthopedic surgeon. All cases of possible or probable joint safety events or cases of TJR for any reason were adjudicated by a blinded Adjudication Committee consisting of orthopedic surgery, rheumatology, orthopedic pathology, and musculoskeletal radiology experts.

[3] = system: patients with OA of the knee or hip; experiment: Example 2: randomized, double-blind, placebo-controlled study (24-week treatment; SC tanezumab at baseline, week 8, week 16), efficacy; settings: for WOMAC Pain subscale Change from Baseline: LS Mean / WOMAC Pain subscale Change from Baseline: LS Mean Difference vs. placebo: Week 2; for PGA-OA: LS Mean (SE) change from Baseline / PGA-OA: LS Mean Difference vs. placebo (SE) / WOMAC Pain: LS Mean Difference vs. placebo (SE) / WOMAC Physical Function: LS Mean (SE) change from Baseline / WOMAC Physical Function: LS Mean Difference vs. placebo (SE) / WOMAC Pain: LS Mean (SE) change from Baseline / % of subjects with ≥50% reduction in the WOMAC Pain subscale / Number of subjects with ≥50% reduction in the WOMAC Pain subscale / WOMAC Pain: LS mean difference±SE versus placebo: Week 24; for WOMAC Pain: LS Mean (SE) change from Baseline: ITT, multiple imputation; for % of subjects with ≥50% reduction in the WOMAC Pain subscale / Number of subjects with ≥50% reduction in the WOMAC Pain subscale: mixed BOCF and LOCF
Text: (§1) Key inclusion criteria were Western Ontario and McMaster Universities Osteoarthritis Index (WOMAC) Pain and Physical Function scores in the index joint; a Patient Global Assessment of OA (PGA-OA) score of fair, poor, or very poor; a history of insufficient pain relief or intolerance to acetaminophen, oral NSAID, and either tramadol or opioids (or unwilling to take opioids). […] Co-primary endpoints were change from baseline in WOMAC Pain, WOMAC Physical Function, and PGA-OA scores at week 24 compared with placebo. Three key secondary endpoints were: reduction in the WOMAC Pain subscale of 50%, at Week 24, WOMAC Pain subscale change from Baseline to Week 2, and weekly average pain score (based on daily diary) in the index joint change from Baseline to Week 1. Safety, including adjudication of joint safety events, was assessed.

[4] = system: patients with OA of the knee or hip; experiment: Example 2: safety, including adjudication of joint safety events
Text: as §1

[5] = both tanezumab regimens pooled (n=464)

In the case of “tanezumab: humanized immunoglobulin G Type 2 (IgG2) monoclonal antibody directed against human nerve growth factor (NGF); SEQ ID NOs: 9 or 11 and 10”, the “PGA-OA: Diff of LS Means vs placebo” value ([1]; 2.5 mg SC) is reported as −0.22, the “PGA-OA: LS Mean change from Baseline” value ([1]; 2.5 mg SC) is reported as −0.87 and the “WOMAC Pain: Diff of LS Means vs placebo” value ([1]; 2.5 mg SC) is reported as −0.60. The “WOMAC Pain: LS Mean change from Baseline” value ([1]; 2.5 mg SC) was −3.23, the “WOMAC Physical Function: Diff of LS Means vs placebo” value ([1]; 2.5 mg SC) was −0.66 and the “WOMAC Physical Function: LS Mean change from Baseline” value ([1]; 2.5 mg SC) was −3.22. For the same substance, the “proportion of patients with ≥50% reduction from baseline in WOMAC Pain subscale” value ([1]; 2.5 mg SC) was 54.5%, the “week 8 non-responders (<30% reduction in WOMAC Pain) transitioning to a moderate response at week 12” value ([1]; 2.5 mg group (10/88)) was 11.4% and the “week 8 non-responders (<30% reduction in WOMAC Pain) transitioning to a substantial response at week 12” value ([1]; 2.5 mg group (14/88)) was 15.9%. The “patients maintaining a moderate or substantial response from week 8 to week 12” value ([1]; 2.5 mg group (138/231)) was 59.7%, the “PGA-OA: Diff of LS Means vs placebo” value ([1]; 2.5/5 mg SC) was −0.25 and the “PGA-OA: LS Mean change from Baseline” value ([1]; 2.5/5 mg SC) was −0.90. The “WOMAC Pain: Diff of LS Means vs placebo” value ([1]; 2.5/5 mg SC) was −0.73, the “WOMAC Pain: LS Mean change from Baseline” value ([1]; 2.5/5 mg SC) was −3.37 and the “WOMAC Physical Function: Diff of LS Means vs placebo” value ([1]; 2.5/5 mg SC) was −0.89. For the same substance, the “WOMAC Physical Function: LS Mean change from Baseline” value ([1]; 2.5/5 mg SC) was −3.45, the “proportion of patients with ≥50% reduction from baseline in WOMAC Pain subscale” value ([1]; 2.5/5 mg SC) was 57.1% and the “week 8 non-responders (<30% reduction in WOMAC Pain) transitioning to a substantial response at week 12” value ([1]; 2.5/5 mg group (17/90)) was 18.9%. The “week 8 non-responders (<30% reduction in WOMAC Pain) transitioning to a moderate response at week 12” value ([1]; 2.5/5 mg group (20/90)) was 22.2%, the “patients maintaining a moderate or substantial response from week 8 to week 12” value ([1]; 2.5/5 mg group (138/233)) was 59.2% and the “events adjudicated as RPOA (types 1 and 2): % of group” value ([2]; 2.5 mg group) was 2.2%. For the same substance, the “events adjudicated as RPOA (types 1 and 2): % of group” value ([2]; 2.5/5 mg group) was 0.4%, the “adjudicated RPOA type 1 (accelerated joint space narrowing): n” value ([2]; both tanezumab regimens pooled) was 4 and the “adjudicated RPOA type 2 (damage or deterioration of the joint): n” value ([2]; both tanezumab regimens pooled) was 2. For the same substance, the “tanezumab-treated patients with TJRs and adjudicated RPOA” value ([2]; both tanezumab regimens pooled) was 2, the “adjudicated RPOA (type 1 or 2): % of tanezumab-treated patients” value [2, 5] was 1.3% and the “adjudicated RPOA (type 1 or 2): number of tanezumab-treated patients” value [2, 5] was 6. For the same substance, the “WOMAC Pain subscale Change from Baseline: LS Mean” value ([3]; 2.5 mg SC) was −2.02, the “WOMAC Pain subscale Change from Baseline: LS Mean Difference vs. placebo” value ([3]; 2.5 mg SC) was −0.67 and the “PGA-OA: LS Mean (SE) change from Baseline” value ([3]; 2.5 mg SC) was −0.82 (0.06). The “PGA-OA: LS Mean Difference vs. placebo (SE)” value ([3]; 2.5 mg SC) was −0.11 (0.07), the “WOMAC Pain: LS Mean Difference vs. placebo (SE)” value ([3]; 2.5 mg SC) was −0.46 (0.18) and the “WOMAC Physical Function: LS Mean (SE) change from Baseline” value ([3]; 2.5 mg SC) was −2.70 (0.17). The “WOMAC Physical Function: LS Mean Difference vs. placebo (SE)” value ([3]; 2.5 mg SC) was −0.59 (0.18), the “WOMAC Pain: LS Mean (SE) change from Baseline” value ([3]; 2.5 mg SC) was −2.70 (0.17) and the “% of subjects with ≥50% reduction in the WOMAC Pain subscale” value ([3]; 2.5 mg SC) was “(45.4%)”. The “Number of subjects with ≥50% reduction in the WOMAC Pain subscale” value ([3]; 2.5 mg SC) was 128, the “WOMAC Pain: LS mean difference±SE versus placebo” value ([3]; 2.5 mg, index joint KL2/3) was −0.19±0.23 and the “WOMAC Pain: LS mean difference±SE versus placebo” value ([3]; 2.5 mg, index joint KL4) was −0.84±0.28. The “WOMAC Pain subscale Change from Baseline: LS Mean” value ([3]; 5 mg SC) was −1.69, the “WOMAC Pain subscale Change from Baseline: LS Mean Difference vs. placebo” value ([3]; 5 mg SC) was −0.34 and the “PGA-OA: LS Mean (SE) change from Baseline” value ([3]; 5 mg SC) was −0.90 (0.06). The “PGA-OA: LS Mean Difference vs. placebo (SE)” value ([3]; 5 mg SC) was −0.19 (0.07), the “WOMAC Pain: LS Mean Difference vs. placebo (SE)” value ([3]; 5 mg SC) was −0.62 (0.18) and the “WOMAC Physical Function: LS Mean (SE) change from Baseline” value ([3]; 5 mg SC) was −2.82 (0.17). For the same substance, the “WOMAC Physical Function: LS Mean Difference vs. placebo (SE)” value ([3]; 5 mg SC) was −0.71 (0.17), the “WOMAC Pain: LS Mean (SE) change from Baseline” value ([3]; 5 mg SC) was −2.85 (0.17) and the “% of subjects with ≥50% reduction in the WOMAC Pain subscale” value ([3]; 5 mg SC) was “(47.9%)”. The “Number of subjects with ≥50% reduction in the WOMAC Pain subscale” value ([3]; 5 mg SC) was 136, the “WOMAC Pain: LS mean difference±SE versus placebo” value ([3]; 5 mg, index joint KL2/3) was −0.32±0.23 and the “WOMAC Pain: LS mean difference±SE versus placebo” value ([3]; 5 mg, index joint KL4) was −0.98±0.28. For the same substance, the “Pre-specified composite joint safety endpoint events: % of patients” value ([4]; 2.5 mg SC) was 1.8%, the “TJRs: % of patients” value ([4]; 2.5 mg SC) was 7.8% and the “Treatment-emergent AEs: % of patients” value ([4]; 2.5 mg SC) was 53%. The “incidence of serious AEs” value ([4]; 2.5 mg SC) was 2.8%, the “Pre-specified composite joint safety endpoint events: % of patients” value ([4]; 5 mg SC) was 3.2% and the “TJRs: % of patients” value ([4]; 5 mg SC) was 7.0%. For the same substance, the “Treatment-emergent AEs: % of patients” value ([4]; 5 mg SC) was 57% and the “incidence of serious AEs” value ([4]; 5 mg SC) was 3.2%.
